Results: article PMC9146163, “Novel Au Carbene Complexes as Promising Multi-Target Agents in Breast Cancer Treatment” (Pharmaceuticals, 2022)
Entries after “also recorded” stand apart in the source; their conditions may differ.

What was measured:
[1] = target: T1, human topoisomerase II (hTopo II) (Homo sapiens, UniProt P11388); assay: hTopo II decatenation assay; type: biochemical; conditions: 1 μM; kDNA, agarose gel
T1 construct: purchased TopoGEN, Port Orange, FL

[2] = test system: cytochrome c in MCF-10A cells; assay: Mitochondria staining and cytochrome c detection, MCF-10A; type: cell-based, human; conditions: IC50 value, 24 h
Method: The MitoTracker Deep Red FM probe (MitoTracker Mitochondrion-Selective Probes, Invitrogen European Headquarters, Paisley, PA4 9RF, UK) was used for mitochondrial staining, as previously described. For immunofluorescence analysis, the cells were seeded and further processed, as reported by Iacopetta et al.. The primary antibodies used were: rabbit anti-β-Actin and vimentin (Santa Cruz Biotechnology, Dallas, TX, USA), mouse anti cytochrome c and NF-κB p65 (Abcam, Cambridge, UK), diluted 1:100 in bovine serum albumin (BSA) 2% overnight at 4 °C. The secondary antibodies were: Alexa Fluor® 488 conjugate goat-anti-rabbit and Alexa Fluor® 568 conjugate goat-anti-mouse (Thermo Fisher Scientific, MA, USA), diluted 1:500 and incubated for 2h at 37 °C. DAPI 0.2 μg/mL (Sigma Aldrich, Milan, Italy) was used for nuclei staining. […] All the images were acquired and processed using the LAS-X software.
I: Figure S5. Mitochondria staining and cytochrome c detection in MCF-10A cells
Figure S5. Mitochondria staining and cytochrome c detection in MCF-10A cells. Figure S5.
Mitochondria staining and cytochrome c detection in MCF-10A cells. In th e CTRL cells as well as
Panels A, DAP I λex/em= 350/460 nm; Panels B, Alexa Fluor CF 488 λex/em=
490/515 nm; Panels C, MitoTracker Deep Red FM probe λex/em= 644/665 nm. Panels D: overlay
channels. Images were acquired at 40x magnification and representative fields are shown.

MCF-10A cells [3] = assay: MTT assay, normal MCF-10A; type: cell-based, human; conditions: MTT; for IC50: 72 h, normal cells, mean ± SD, read-out: IC50 MCF-10A
Method: (§1) The five employed cell lines were purchased from American Type Culture Collection (ATCC, Manassas, VA, USA) and maintained as already reported. […] SkBr3 cells were maintained in DMEM high glucose, supplemented with 10% FBS and 100 μg/mL penicillin/streptomycin.
[…] Results are represented as percent (%) of basal and the IC50 values were calculated using GraphPad Prism 9 (GraphPad Software, La Jolla, CA, USA).

Hek-293 cells = assay: MTT assay, normal Hek-293; type: cell-based, human; conditions: MTT, 72 h; normal cells; mean ± SD; read-out: IC50 Hek-293
Method: as §1
(§2) MTT assays [Sigma Aldrich (St.Louis, MO, USA)] were used in order to determine the in vitro anticancer activities of all the target compounds, as already reported.The compounds were tested at different concentrations (0.1-1-10-20-40 µM) for 72 h. Results are represented as percent (%) of basal and the IC50 values were calculated using GraphPad Prism 9 (GraphPad Software, La Jolla, CA, USA).

[4] = target: T2, human topoisomerase I (hTopo I) (Homo sapiens, UniProt P11387); assay: hTopo I relaxation assay; type: biochemical; conditions: 1 μM; supercoiled pHOT1, agarose gel
T2 construct: purchased TopoGEN, Port Orange, FL, USA
T2 sequence (P11387 whole entry): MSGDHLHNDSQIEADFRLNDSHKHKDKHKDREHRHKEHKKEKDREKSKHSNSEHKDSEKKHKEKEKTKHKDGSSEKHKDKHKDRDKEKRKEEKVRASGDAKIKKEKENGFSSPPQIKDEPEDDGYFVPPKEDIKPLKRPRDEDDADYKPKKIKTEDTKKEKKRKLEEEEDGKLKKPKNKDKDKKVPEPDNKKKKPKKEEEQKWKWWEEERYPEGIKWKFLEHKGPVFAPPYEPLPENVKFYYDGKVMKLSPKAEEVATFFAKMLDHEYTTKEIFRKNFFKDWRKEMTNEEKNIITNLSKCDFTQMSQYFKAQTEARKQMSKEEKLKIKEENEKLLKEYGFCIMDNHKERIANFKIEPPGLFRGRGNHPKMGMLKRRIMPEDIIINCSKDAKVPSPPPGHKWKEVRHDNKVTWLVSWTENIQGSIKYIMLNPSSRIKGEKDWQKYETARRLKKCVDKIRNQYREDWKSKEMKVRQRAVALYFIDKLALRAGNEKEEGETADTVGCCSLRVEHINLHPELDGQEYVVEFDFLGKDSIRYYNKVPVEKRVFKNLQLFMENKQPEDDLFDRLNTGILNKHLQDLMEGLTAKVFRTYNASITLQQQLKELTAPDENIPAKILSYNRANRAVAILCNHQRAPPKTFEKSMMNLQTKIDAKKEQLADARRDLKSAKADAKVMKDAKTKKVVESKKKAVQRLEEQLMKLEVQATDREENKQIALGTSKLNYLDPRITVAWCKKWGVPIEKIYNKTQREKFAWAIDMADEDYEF

[5] = test system: caspases 3/7, 8, and 9 in MCF-10A cells; assay: Caspase-Glo assay, MCF-10A; type: cell-based, human; conditions: IC50 values, 24 h; vs vehicle
Method: The activities of caspases 3/7, 8, and 9 were measured by using the Caspase-Glo Assay according to the manufacturer’s guidelines (Caspase-Glo 3/7, 8, and 9 Assay Systems, Promega Corporation, Madison, WI, USA), as already described. The luminescence was detected in a plate-reading luminometer (Synergy H1 Hybrid Reader, BioTek) for 30 min to 3 h (λex/em = 490/570 nm). Results were reported as signal-to-noise ratio (background was determined from the culture medium without cells). The experiments were performed in triplicate.
H: Figure S4. Caspases activity in MCF-10A cells
Caspase 3/7 Caspase 8 Caspase 9
Figure S4. Caspases activity.
between th e vehicl e-treated cells, us ed as control, and the cells treated with compounds 1 and 6. Both
The data are representative of […]

[6] = LogP determination (1-octanol/water, UV/vis); type: physicochemical; conditions: log[complex]oct/[complex]H2O, 55 μM, UV-Vis
Method: The logarithm of the partition coefficient (LogP) was evaluated by making a slight modification to the procedure reported in ref. [79]. Equal volumes of 1-octanol and water (distilled after milli-Q purification) were stirred for 20 h at room temperature. Then, they were separated to give 1-octanol-saturated water and water-saturated 1-octanol. Six (10, 20, 40, 50, 60 and 100 μM) standard concentrations of the compounds were prepared from the water-saturated 1-octanol. Analysis using UV/vis spectroscopy was used to obtain a calibration curve of absorbance vs. concentration. For each complex, a solution was prepared in the water-saturated 1-octanol (55 μM) and an equal volume of 1-octanol-saturated water was added. The solutions (biphasic) were mixed for 15 min and then centrifuged for 1h at 6500 rpm to allow separation.
Concentration in water-saturated 1-octanol was determined by UV-Vis spectroscopy. Reported LogP is defined as log[complex]oct/[complex]H2O.

MDA-MB-231 cells = assay: MTT assay, MDA-MB-231; type: cell-based, human; conditions: MTT, 72 h; mean ± SD; read-out: IC50 MDA-MB-231
Method: The five employed cell lines were purchased from American Type Culture Collection (ATCC, Manassas, VA, USA) and maintained as already reported. MCF-7, MDA-MB-231, MCF-10A and Hek-293 were cultured, as indicated by Iacopetta et al.. SkBr3 cells were maintained in DMEM high glucose, supplemented with 10% FBS and 100 μg/mL penicillin/streptomycin.
as §2

MCF-10A cells [7] = assay: TUNEL assay, MCF-10A; conditions: IC50, 24 h
Method: TUNEL assay was employed to assess the cells’ apoptosis, following the manufacturer’s procedures (CF™488A TUNEL Assay Apoptosis Detection Kit, Biotium, Hayward, CA, USA). […] DAPI (Sigma, 0.2 µg/mL) was used for nuclei staining. A fluorescence microscope (Leica DM 6000) was used for fluorescence detection (20× magnification). All the images were processed using the LAS-X software. Images are representative of three independent experiments.
TUNEL assay in MCF-10A cells
Then they were exposed to the TdT enzyme and
visualized under a fluorescence microscope (20x magnification).

[8] = target: T3, Labeled Rabbit Muscle Actin (Oryctolagus cuniculus, UniProt P68135); assay: In vitro actin depolymerization assay; type: biochemical; conditions: 5 µM
T3 construct: purchased Abcam (Actin Polymerization/Depolymerization Assay Kit)
Method: The ability of the tested compounds to interfere with the actin polymerization and depolymerization reaction was measured using an Actin Polymerization/Depolymerization Assay Kit purchased from Abcam, following the manufacturer’s instructions. […] For the polymerization assay, reconstituted actin was mixed with supplemented Buffer G and samples in a white 96-well plate and then the polymerization reaction was induced with the addition of the Buffer P supplemented with 10 mM ATP. The solution was mixed and the data acquisition started. For the Actin Depolymerization Assay, supplemented Buffers P and G were mixed and incubated in a white 96-well plate at room temperature for one hour to polymerize the actin, protected from light. Then samples were added and the data acquisition started. Latrunculin A and Cytochalasin B were used as control molecules at a concentration of 5 μM. For both the assays, the assembly of actin filaments was determined by measuring the fluorescence (Ex/Em: 365/410 nm) in kinetic mode for 1 h at room temperature using a microplate reader.

T1 sequence (P11388 whole entry): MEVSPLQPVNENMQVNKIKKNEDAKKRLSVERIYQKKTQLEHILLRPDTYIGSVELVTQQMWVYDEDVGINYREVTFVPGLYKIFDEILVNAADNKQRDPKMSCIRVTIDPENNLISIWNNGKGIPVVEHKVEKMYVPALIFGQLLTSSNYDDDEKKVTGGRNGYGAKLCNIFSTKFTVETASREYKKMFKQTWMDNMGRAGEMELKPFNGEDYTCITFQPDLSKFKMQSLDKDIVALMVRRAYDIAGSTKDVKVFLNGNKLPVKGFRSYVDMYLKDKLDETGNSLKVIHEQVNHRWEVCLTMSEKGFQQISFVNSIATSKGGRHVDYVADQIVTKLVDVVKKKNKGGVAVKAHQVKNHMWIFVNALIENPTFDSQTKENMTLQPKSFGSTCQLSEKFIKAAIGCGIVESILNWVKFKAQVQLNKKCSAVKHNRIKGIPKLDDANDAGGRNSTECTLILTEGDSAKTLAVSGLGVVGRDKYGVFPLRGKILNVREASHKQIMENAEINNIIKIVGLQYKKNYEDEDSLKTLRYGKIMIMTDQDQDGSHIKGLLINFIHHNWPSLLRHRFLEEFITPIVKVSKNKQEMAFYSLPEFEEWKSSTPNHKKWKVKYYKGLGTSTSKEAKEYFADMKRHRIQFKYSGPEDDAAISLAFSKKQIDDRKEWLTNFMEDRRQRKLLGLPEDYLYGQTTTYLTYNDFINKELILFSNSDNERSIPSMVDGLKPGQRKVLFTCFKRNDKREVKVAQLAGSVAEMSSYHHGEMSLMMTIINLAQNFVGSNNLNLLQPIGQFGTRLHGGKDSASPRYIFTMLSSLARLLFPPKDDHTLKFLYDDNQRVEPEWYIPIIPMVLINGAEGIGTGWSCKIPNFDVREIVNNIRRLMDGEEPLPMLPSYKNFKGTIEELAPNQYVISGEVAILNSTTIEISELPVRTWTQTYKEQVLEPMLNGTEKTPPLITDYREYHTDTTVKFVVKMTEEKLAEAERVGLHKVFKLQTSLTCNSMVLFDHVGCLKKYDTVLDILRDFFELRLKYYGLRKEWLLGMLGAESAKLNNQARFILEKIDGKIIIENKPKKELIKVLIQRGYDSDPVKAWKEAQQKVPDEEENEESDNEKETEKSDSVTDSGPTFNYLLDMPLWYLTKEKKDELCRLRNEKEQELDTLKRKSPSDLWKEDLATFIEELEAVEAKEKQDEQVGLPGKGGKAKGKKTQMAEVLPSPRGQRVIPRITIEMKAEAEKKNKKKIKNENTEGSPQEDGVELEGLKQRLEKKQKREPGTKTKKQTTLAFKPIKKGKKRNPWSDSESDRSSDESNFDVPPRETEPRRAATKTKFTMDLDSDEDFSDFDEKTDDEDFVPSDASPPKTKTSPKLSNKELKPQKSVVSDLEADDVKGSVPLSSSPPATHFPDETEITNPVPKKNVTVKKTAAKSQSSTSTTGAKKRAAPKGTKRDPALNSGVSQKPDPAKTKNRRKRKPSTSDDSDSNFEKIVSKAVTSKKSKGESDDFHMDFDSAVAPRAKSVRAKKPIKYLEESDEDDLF

SMILES | inhibition of hTopo II decatenation activity [1] | cytochrome c localization, MCF-10A [2] | IC50 (MCF-10A cells [3]) [µM] | IC50 (Hek-293 cells) [µM] | inhibition of hTopo I supercoil relaxing activity [4] | caspases 3/7, 8 and 9 activity levels, MCF-10A [5] | LogP [6] | IC50 (MDA-MB-231 cells) [µM] | apoptosis (TUNEL), MCF-10A (MCF-10A cells [7]) | effect on already polymerized actin (in words) [8] | cytotoxicity against the normal MCF-10A cells (in words) (MCF-10A cells [3]; up to the concentration of 200 μM)
CC(=O)[O-].Cn1c(Cl)c(Cl)n(CC(O)c2ccccc2)[c]1=[Au+]=[c]1n(C)c(Cl)c(Cl)n1CC(O)c1ccccc1 (stereo not drawn) [Compound 6, Bis [4,5-dichloro-(N-methyl, N’(2-hydroxy-2-phenyl-ethyl)imidazole-2-ylidine]gold(I)] acetate] | totally inhibited | within mitochondria | 24.4 ± 0.9 | 32.5 ± 1.1 | totally inhibit | No differences | 0.78 | 16.8 ± 1.2 | No apoptosis was detected | did not produce a significant decrease | 
Cn1ccn(CC([O-])c2ccccc2)[c]1=[Au+]=[c]1n(C)ccn1CC([O-])c1ccccc1.[Cl-].[Na+].[Na+] (stereo not drawn) [Compound 1] | totally inhibited | within mitochondria | > 200 | > 200 | totally inhibit | No differences | 0.079 | 15.8 ± 0.7 | No apoptosis was detected | did not produce a significant decrease | complete lack of cytotoxicity; also recorded: completely lack of cytotoxicity
